Patent publication US20230321126A1 (priority 2020, published 2023)

What was measured:
[1] = molecular target: RBD of SARS-CoV-2 spike protein (Severe acute respiratory syndrome coronavirus 2, UniProt P0DTC2); details: Jena et al.; cited from earlier work
[2] = molecular target: T1, hACE2 (Homo sapiens, UniProt Q9BYF1); details: Jena et al.; cited from earlier work
[3] = molecular target: RBD of SARS-CoV-2 spike protein / hACE2 receptor (Severe acute respiratory syndrome coronavirus 2, UniProt P0DTC2); type: binding; details: 100 μg/ml
[4] = system: SARS-CoV-2 spike protein pseudo-typed virions; type: cell-based
[5] = system: SARS-CoV-2 spike protein pseudo-typed virions; type: cell-based; remark: listed apart in the source
[6] = system: cathepsin L; assay: Cathepsin L expression in A549 cells (Western blot); type: cell-based, human; details: 24 h
Experimental: Western blot analysis: A549 cells were treated with indicated concentrations of selected polyphenols and lysed using RIPA lysis buffer (Sigma, St. Louis, MO) supplemented with 1× Complete protease inhibitors (Roche Applied Science, Indianapolis, IN). The protein concentration was measured by the Dc protein assay (Bio-Rad, Hercules, CA). Proteins (50 μg/well) were separated on 8-16% gradient SDS-PAGE gels and transferred to a PVDF membrane. Specific proteins were detected with commercially available human anti-cathepsin L, anti-TMPRSS2, and anti-ACE2 monoclonal antibodies, all at 1:200 dilution, and anti-β-actin antibody as a loading control at 1:1000 dilution. Images were captured with Azure™ cSeries digital imaging system (Azure Biosystems, Dublin, CA) with auto-exposure settings. Densitometry was performed with NIH ImageJ software.
Cathepsin L expression: Expression of cathepsin L in cells was performed using Western blot. […] Next, cells were washed with 1×PBS, lysed, and processed according to procedure described below.
Western blot: A495 cells were lysed with lysis buffer [R IPA buffer plus 1× Protease Inhibitor (ThermoFisher Scientific, Waltham, MA)]. The protein estimation was performed with Dc Protein Assay (Bio-Rad, Hercules, CA). A 45 μg/well of protein was separated on 8-16% gradient SDS-PAGE gels and transferred to a PVDF membrane. […]

[7] = molecular target: T1, hACE2; assay: ACE2 binding assay (ACE2 Inhibitor Screening Assay Kit); parameters: purchased BPS Bioscience
[8] = system: lysosomal/endosomal pH of A549 cells; assay: Endosomal/lysosomal pH assay in A549 cells; type: cell-based, human; details: 5.0-25 μg/ml; control approximately pH=5.0
Experimental: Acridine orange (Thermo Fisher Scientific, Waltham, MA) was added directly to each dish to reach a final concentration of 6.6 μg/ml. The cells were additionally incubated at 37° C. with 5% CO2 for 20 min. and washed three times with 1×PBS. Live Cell Imaging Solution (LCIS) (Thermo Fisher Scientific, Waltham, MA) was added to the wells, and images were taken using a Zeiss Axio Observer A1 fluorescence microscope with a 40× magnification. […] Results are expressed as a percentage of polyphenol-free control (mean+/−SD, n=3).
A concurrent experiment was performed using pHrodo™ Green AM Intracellular pH Indicator (Thermo Fisher Scientific, Waltham, MA) according to the manufacturer's protocol. […] Next, 10 μl of the pHrodo™ Green AM dye was added to 100 μl of PowerLoad™ to facilitates uniform cellular loading of AM esters, and the whole dye solution was transferred into 10 ml of LCIS. […] The plate was incubated for 30 min. at 37° C., washed again with LCIS, and fluorescence was measured at Ex/Em=509/533 nm wavelength using a spectrofluorometer (Tecan Group Ltd, Switzerland). pH identification was performed based on standard curve, using an Intracellular pH Calibration Buffer Kit according to the manufacturer's protocol (Thermo Fisher Scientific, Waltham, MA). […] Next, the fluorescence was measured Ex/Em=509/533 nm wavelength. […]

[9] = system: A549 cells expressing SARS-CoV-2 spike protein / hACE2/A549 cells; type: cell-based, human; details: 25 μg/ml, 4 h

T1 sequence (Q9BYF1 18-805): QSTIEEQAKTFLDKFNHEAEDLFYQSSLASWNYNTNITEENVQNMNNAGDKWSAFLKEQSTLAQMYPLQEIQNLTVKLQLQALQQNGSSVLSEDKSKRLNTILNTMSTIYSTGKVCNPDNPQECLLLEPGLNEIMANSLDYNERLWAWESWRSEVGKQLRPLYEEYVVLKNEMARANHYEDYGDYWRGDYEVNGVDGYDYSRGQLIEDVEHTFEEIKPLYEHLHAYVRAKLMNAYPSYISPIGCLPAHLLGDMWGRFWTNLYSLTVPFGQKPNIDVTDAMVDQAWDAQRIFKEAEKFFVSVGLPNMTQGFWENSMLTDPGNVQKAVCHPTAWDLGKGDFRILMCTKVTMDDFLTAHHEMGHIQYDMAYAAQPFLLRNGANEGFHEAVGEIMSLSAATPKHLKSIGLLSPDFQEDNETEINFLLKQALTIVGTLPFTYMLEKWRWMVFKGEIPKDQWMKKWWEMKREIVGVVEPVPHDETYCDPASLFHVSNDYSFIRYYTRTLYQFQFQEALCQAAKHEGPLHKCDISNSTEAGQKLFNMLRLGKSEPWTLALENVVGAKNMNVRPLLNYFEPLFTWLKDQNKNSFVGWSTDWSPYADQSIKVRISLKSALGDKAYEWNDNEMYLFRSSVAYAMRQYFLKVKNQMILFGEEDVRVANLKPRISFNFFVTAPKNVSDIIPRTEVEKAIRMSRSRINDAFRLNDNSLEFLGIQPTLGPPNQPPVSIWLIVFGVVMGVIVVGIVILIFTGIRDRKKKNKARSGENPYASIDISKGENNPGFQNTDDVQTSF

## catechin
[1]
  binding affinity to viral spike protein: -7.9 kcal/mol
[2]
  binding affinity to hACE2: -7.8 kcal/mol

## COc1cc(/C=C/C(=O)CC(=O)/C=C/c2ccc(O)c(OC)c2)ccc1O [Curcumin]
[3]
  rank of inhibitory effect among 56 polyphenols and plant extracts: highest inhibitory effect
[4]
  binding of pseudo-typed virions to hACE2/A549: inhibit, in dose-dependent fashion
[5]
  concentration from which significant inhibition was seen: ≥ 5.0 µg/mL
[6]
  cathepsin L expression at protein level: neither brazilin nor curcumin downregulated cathepsin L expression
[1]
  binding affinity to viral spike protein: -10.5 kcal/mol
[2]
  binding affinity to hACE2: -8.9 kcal/mol
[7]
  concentration showing binding efficacy to ACE2: 10 to 25 µg/mL

## theaflavin-3,3′-digallate [TF-3]
[4]
  binding of pseudo-typed virions to hACE2/A549: inhibit, in dose-dependent fashion
[8]
  lysosomal/endosomal pH: 5.5-6.0 pH

## Oc1ccc2c(c1)OC[C@]1(O)Cc3cc(O)c(O)cc3[C@H]21 [Brazilin]
[3]
  rank of inhibitory effect among 56 polyphenols and plant extracts: highest inhibitory effect
[4]
  binding of pseudo-typed virions to hACE2/A549: inhibit, in dose-dependent fashion
[9]
  decrease of fusion: 40%
[6]
  cathepsin L expression at protein level: neither brazilin nor curcumin downregulated cathepsin L expression
[7]
  direct binding to ACE2: does not bind to ACE2 directly
